pEC50: −log10 of the molar value.
Experiments:
[1] = test system: HEK293 cells overexpressing APOL1 G2; experiment: APOL1 G2 HEK293 cell rescue assay (reversal of cell death caused by overexpression of APOL1); type: cell-based; conditions: Homo sapiens, HEK293, HEK293 overexpressing APOL1 G2; geometric mean of at least 2 assay runs; † = single assay run
How it was run: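 EC50 is the half-maximal effective concentration for reversing cell death driven by APOL1 G2 overexpression in HEK293 cells. Reported as geometric mean of at least 2 runs on separate days, each run averaging duplicate wells per plate; some values from a single run.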

[2] = test system: HEK293 clonal cell line overexpressing APOL1 G1; experiment: APOL1 G1 HEK293 cell rescue assay (Example B3); type: cell-based; conditions: Homo sapiens, HEK293, HEK293 clonal line overexpressing APOL1 G1; geometric mean of at least 2 runs; † = single run; ¥ = concentration at 50% rescue estimated (no sigmoidal curve)
How it was run: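 HEK293 clonal line overexpressing APOL1 G1; EC50 is half-maximal reversal of APOL1-induced cell death. Values are the geometric mean of ≥2 runs on separate days, each run the average of duplicate wells. Where no sigmoidal curve could be fitted, the concentration giving 50% rescue was estimated.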

Row | Structure (SMILES) | pEC50 [1] | pEC50 [2]
1 | CC(C)(O)c1ncc(OCCN2CCC3(CC2)C(=O)Nc2ccc(C#N)cc23)cc1C(F)(F)F [Compound 411, 1′-(2-{[6-(2-hydroxypropan-2-yl)-5-(trifluoromethyl)pyridin-3-yl]oxy}ethyl)-2-oxo-1,2-dihydrospiro[indole-3,4′-piperidine]-5-carbonitrile] | 7.65 | 7.25
2 | [2H]C([2H])(Oc1cnc2c(c1)CCC(=O)N2[C@H]1C[C@@](C)(O)C1)C([2H])([2H])N1CCC2(CC1)C(=O)Nc1ccc(Cl)cc12 [Compound 426, 5-chloro-1′-[2-({7-oxo-8-[(cis)-3-hydroxy-3-methylcyclobutyl]-5,6,7,8-tetrahydro-1,8-naphthyridin-3-yl}oxy)(1,1,2,2-^2H4)ethyl]-1,2-dihydrospiro[indole-3,4′-piperidin]-2-one] | 7.42 | 7.10
3 | C[C@]1(O)C[C@@H](n2cc3cc(OCCN4CCC5(CC4)C(=O)Nc4ccc(Cl)cc45)cc(C(F)(F)F)c3n2)C1 [Compound 427, 5-chloro-1′-[2-({2-[(cis)-3-hydroxy-3-methylcyclobutyl]-7-(trifluoromethyl)-2H-indazol-5-yl}oxy)ethyl]-1,2-dihydrospiro[indole-3,4′-piperidin]-2-one] | 7.73 | 7.45
4 | C[C@]1(O)C[C@@H](n2cc3cc(OCCN4CCC5(CC4)C(=O)Nc4ccc(C#N)cc45)cc(C(F)(F)F)c3n2)C1 [Compound 428, 2-oxo-1′-[2-({2-[(cis)-3-hydroxy-3-methylcyclobutyl]-7-(trifluoromethyl)-2H-indazol-5-yl}oxy)ethyl]-1,2-dihydrospiro[indole-3,4′-piperidine]-5-carbonitrile] | 7.27 | 7.05
5 | C[C@]1(O)C[C@@H](n2cnc3cc(OCCN4CCC5(CC4)C(=O)Nc4ccc(C#N)cc45)cc(C(F)(F)F)c32)C1 [Compound 433, 1′-(2-((1-((cis)-3-hydroxy-3-methylcyclobutyl)-7-(trifluoromethyl)-1H-benzo[d]imidazol-5-yl)oxy)ethyl)-2-oxospiro[indoline-3,4′-piperidine]-5-carbonitrile] | 7.83 | 7.53
6 | C[C@]1(O)C[C@@H](n2nnc3cc(OCCN4CCC5(CC4)C(=O)Nc4ccc(Cl)cc45)cc(C(F)(F)F)c32)C1 [Compound 434, 5-chloro-1′-[2-({1-[(cis)-3-hydroxy-3-methylcyclobutyl]-7-(trifluoromethyl)-1H-1,2,3-benzotriazol-5-yl}oxy)ethyl]-1,2-dihydrospiro[indole-3,4′-piperidin]-2-one] | 7.95 | 7.83
7 | C[C@]1(O)C[C@@H](n2nnc3cc(OCCN4CCC5(CC4)C(=O)Nc4ccc(C#N)cc45)cc(C(F)(F)F)c32)C1 [Compound 435, 2-oxo-1′-[2-({1-[(cis)-3-hydroxy-3-methylcyclobutyl]-7-(trifluoromethyl)-1H-1,2,3-benzotriazol-5-yl}oxy)ethyl]-1,2-dihydrospiro[indole-3,4′-piperidine]-5-carbonitrile] | 7.89 | 7.42
8 | C[C@]1(O)C[C@@H](n2cnc3cc(OCCN4CCC5(CC4)C(=O)Nc4ccc(Cl)cc45)cc(C#N)c32)C1 [Compound 439, 5-(2-{5-chloro-2-oxo-1,2-dihydrospiro[indole-3,4′-piperidin]-1′-yl}ethoxy)-1-[(cis)-3-hydroxy-3-methylcyclobutyl]-1H-1,3-benzodiazole-7-carbonitrile] | 7.83 | 7.34
9 | C[C@]1(O)C[C@@H](n2nnc3cc(OCCN4CCC5(CC4)C(=O)Nc4ccc(Cl)cc45)cnc32)C1 [Compound 440, 5-chloro-1′-[2-({3-[(cis)-3-hydroxy-3-methylcyclobutyl]-3H-[1,2,3]triazolo[4,5-b]pyridin-6-yl}oxy)ethyl]-1,2-dihydrospiro[indole-3,4′-piperidin]-2-one] | 7.26 | 6.86
10 | Cc1nc2cc(OCCN3CCC4(CC3)C(=O)Nc3ccc(Cl)cc34)cc(C(F)(F)F)c2n1[C@H]1C[C@@](C)(O)C1 [Compound 442, 5-chloro-1′-[2-({2-methyl-1-[(cis)-3-hydroxy-3-methylcyclobutyl]-7-(trifluoromethyl)-1H-1,3-benzodiazol-5-yl}oxy)ethyl]-1,2-dihydrospiro[indole-3,4′-piperidin]-2-one] | > 8.51 | 7.81
11 | Cc1nc2cc(OCCN3CCC4(CC3)C(=O)Nc3ccc(C#N)cc34)cc(C(F)(F)F)c2n1[C@H]1C[C@@](C)(O)C1 [Compound 443, 1′-[2-({2-methyl-1-[(cis)-3-hydroxy-3-methylcyclobutyl]-7-(trifluoromethyl)-1H-1,3-benzodiazol-5-yl}oxy)ethyl]-2-oxo-1,2-dihydrospiro[indole-3,4′-piperidine]-5-carbonitrile] | 7.99 | 7.51
12 | C[C@]1(O)C[C@@H](n2cnc3cc(OCCN4CCC5(CC4)C(=O)Nc4ccc(C(F)F)cc45)cc(C(F)(F)F)c32)C1 [Compound 450, 5-(difluoromethyl)-1′-[2-({1-[(cis)-3-hydroxy-3-methylcyclobutyl]-7-(trifluoromethyl)-1H-1,3-benzodiazol-5-yl}oxy)ethyl]-1,2-dihydrospiro[indole-3,4′-piperidin]-2-one] | 8.26 | 7.83
13 | CC1(O)CC2(CN(c3ncc(OCCN4CCC5(CC4)C(=O)Nc4ccc(Cl)cc45)cn3)C2)C1 [Compound 459, 5-chloro-1′-{2-[(2-{6-hydroxy-6-methyl-2-azaspiro[3.3]heptan-2-yl}pyrimidin-5-yl)oxy]ethyl}-1,2-dihydrospiro[indole-3,4′-piperidin]-2-one] | 7.54 | 7.02
14 | C[C@]1(O)C[C@@H](N2C(=O)C3(CC3)c3cc(OCCN4CCC5(CC4)C(=O)Nc4ccc(Cl)cc45)cnc32)C1 [Compound 460, 5-chloro-1′-(2-{2′-oxo-1′-[(cis)-3-hydroxy-3-methylcyclobutyl]-1′,2′-dihydrospiro[cyclopropane-1,3′-pyrrolo[2,3-b]pyridin]-5′-yloxy}ethyl)-1,2-dihydrospiro[indole-3,4′-piperidin]-2-one] | 7.27 | 7.01
15 | [2H]C([2H])([2H])[C@]1(O)C[C@@H](N2C(=O)CCc3cc(OCCN4CCC5(CC4)C(=O)Nc4ccc(Cl)cc45)cnc32)C1 [Compound 461, 5-chloro-1′-[2-({7-oxo-8-[(cis)-3-hydroxy-3-(^2H3)methylcyclobutyl]-5,6,7,8-tetrahydro-1,8-naphthyridin-3-yl}oxy)ethyl]-1,2-dihydrospiro[indole-3,4′-piperidin]-2-one] | 7.55 | 7.09
16 | C[C@]1(O)C[C@@H](n2c(=O)[nH]c3cc(OCCN4CCC5(CC4)C(=O)Nc4ccc(Cl)cc45)cc(C(F)(F)F)c32)C1 [Compound 468, 5-chloro-1′-[2-({2-oxo-1-[(cis)-3-hydroxy-3-methylcyclobutyl]-7-(trifluoromethyl)-2,3-dihydro-1H-1,3-benzodiazol-5-yl}oxy)ethyl]-1,2-dihydrospiro[indole-3,4′-piperidin]-2-one] | 8.19 | 7.84
17 | C[C@]1(O)C[C@@H](n2c(=O)[nH]c3cc(OCCN4CCC5(CC4)C(=O)Nc4ccc(C#N)cc45)cc(C(F)(F)F)c32)C1 [Compound 470, 2-oxo-1′-[2-({2-oxo-1-[(cis)-3-hydroxy-3-methylcyclobutyl]-7-(trifluoromethyl)-2,3-dihydro-1H-1,3-benzodiazol-5-yl}oxy)ethyl]-1,2-dihydrospiro[indole-3,4′-piperidine]-5-carbonitrile] | 6.75 | 7.32
